Among the data in patent publication US9776972B2, “Pyrazole derivatives as arginine methyltransferase inhibitors and uses thereof” (priority 2013, dated 2017) are IC50 values, retold here.

The target of one assay is T1, human PRMT6 (Homo sapiens, UniProt Q96LA8).
T1 construct: Flag-PRMT6-His; made in house; host or cells: HEK 293F cells (BacMam baculovirus)
The assay is described as follows: PRMT6 Biochemical Assay (3H-SAM Flashplate, peptide substrate). In a few lines: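 Methylation of a biotin-tagged H4 (36-50) peptide by ³H-SAM was quantified by streptavidin Flashplate capture and scintillation counts (dpm/cpm). Before SAM/peptide addition, Flag-PRMT6-His was preincubated with compound for 30 min at room temperature in Bicine buffer, pH 7.6.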

In the next assay the target is T2, Human CARM1 (PRMT4) (Homo sapiens, UniProt Q86X55).
T2 construct: Flag-CARM1-His; made in house; host or cells: HEK 293F cells (BacMam baculovirus)
T2 sequence (Q86X55 1-585 isoform Q86X55-1): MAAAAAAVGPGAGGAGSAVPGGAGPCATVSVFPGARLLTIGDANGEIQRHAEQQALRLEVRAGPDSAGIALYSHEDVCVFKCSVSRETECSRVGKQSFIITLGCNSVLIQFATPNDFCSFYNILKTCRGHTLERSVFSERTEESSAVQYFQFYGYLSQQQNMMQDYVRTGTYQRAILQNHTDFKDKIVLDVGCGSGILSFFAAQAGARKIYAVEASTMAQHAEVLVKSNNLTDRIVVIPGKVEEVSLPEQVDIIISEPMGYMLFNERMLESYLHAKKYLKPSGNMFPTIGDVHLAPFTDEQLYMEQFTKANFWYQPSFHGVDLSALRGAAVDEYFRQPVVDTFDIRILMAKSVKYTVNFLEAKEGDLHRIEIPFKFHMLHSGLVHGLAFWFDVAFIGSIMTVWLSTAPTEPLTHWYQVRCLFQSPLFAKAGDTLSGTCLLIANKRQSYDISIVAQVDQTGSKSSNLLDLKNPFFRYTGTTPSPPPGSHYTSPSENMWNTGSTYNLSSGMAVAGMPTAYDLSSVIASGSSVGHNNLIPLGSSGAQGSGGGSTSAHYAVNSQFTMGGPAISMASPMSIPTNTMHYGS
The assay is described as follows: CARM1 Biochemical Assay (3H-SAM Flashplate, peptide substrate). The following applies: single experiment or average of multiple experiments. In a few lines: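 Flag-CARM1-His from baculovirus was pre-incubated with compound for 30 min at room temperature in 20 mM Bicine pH 7.6, then reacted with 3H-SAM and a biotinylated H3(16-30) R26-monomethyl peptide.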

Setting [1] is: single experiment or average of multiple experiments, read-out: Biochemical IC50 PRMT6.
The mark [2] stands for this setting: Biochemical IC50 PRMT6, single experiment or average of multiple experiments.

Like-named read-outs stand apart in the source and are kept apart here.

As a reminder, the IC50 is the midpoint of a concentration-inhibition curve.

T1 sequence (Q96LA8 with tags, fused parts or gaps): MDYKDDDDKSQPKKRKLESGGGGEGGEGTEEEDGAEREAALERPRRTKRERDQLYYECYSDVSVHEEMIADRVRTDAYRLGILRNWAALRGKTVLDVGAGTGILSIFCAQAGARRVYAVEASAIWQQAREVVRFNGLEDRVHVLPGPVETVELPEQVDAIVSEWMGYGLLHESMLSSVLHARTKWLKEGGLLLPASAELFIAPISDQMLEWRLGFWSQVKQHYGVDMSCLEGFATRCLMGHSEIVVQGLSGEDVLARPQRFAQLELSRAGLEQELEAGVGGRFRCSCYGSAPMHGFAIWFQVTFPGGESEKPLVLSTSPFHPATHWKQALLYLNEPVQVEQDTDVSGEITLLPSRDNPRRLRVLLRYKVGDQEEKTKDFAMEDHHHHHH

In the case of `CN(CCN)Cc1c[nH]nc1-c1ccc(F)cc1` [Compound 1], the IC50 at human PRMT6 (setting [1]) is 11 nM; on Human CARM1 (PRMT4), 1350 nM.

The compound `CN(CCN)Cc1cn(C)nc1-c1ccc(F)cc1` [Compound 3] returned an IC50 against human PRMT6 (setting [2]) of 27 nM.

For `CN(CCN)Cc1cnn(C)c1-c1ccc(F)cc1` [Compound 4], the results for the IC50 on human PRMT6 (setting [2]) and against Human CARM1 (PRMT4) were 76.1 nM and 742 nM, respectively.

In turn, `COCCn1cc(CN(C)CCN)c(-c2ccc(F)cc2)n1` [Compound 5] gave an IC50 against human PRMT6 (setting [2]) of 467 nM.

On Human CARM1 (PRMT4), `CCN(CCNC)Cc1c[nH]nc1-c1ccc(F)cc1` [Compound 9] came in with a half-inhibitory concentration (IC50) of 2810 nM.

For the compound `CNCCN(C)Cc1cnn(C)c1-c1ccc(F)cc1` [Compound 10], the IC50 at Human CARM1 (PRMT4) was determined as 1190 nM.

As to `CNCCN(C)Cc1cnn(CC2CCOCC2)c1-c1ccc(F)cc1` [Compound 12], the IC50 was 191 nM against human PRMT6 (setting [2]) and 4840 nM against Human CARM1 (PRMT4).

For the compound `CNCCN(C)Cc1c[nH]nc1-c1cccc(N)c1` [Compound 32], the results for the IC50 at human PRMT6 (setting [1]) and against Human CARM1 (PRMT4) were 22.2 nM and 1130 nM, respectively.

Take `CNCCN(C)Cc1c[nH]nc1-c1ccc(CC#N)cc1` [Compound 34]: the results for the IC50 at human PRMT6 (setting [1]) and on Human CARM1 (PRMT4) were 11.3 nM and 1370 nM, respectively.

Consider `CNCCN(C)Cc1c[nH]nc1-c1ccccc1O` [Compound 35], for which the IC50 at human PRMT6 (setting [1]) was 457 nM.

For the compound `CNCCN(C)Cc1c[nH]nc1-c1cccc(OC(F)(F)F)c1` [Compound 39], the IC50 is 37.8 nM at human PRMT6 (setting [2]) and 2110 nM on Human CARM1 (PRMT4).

For `CNCCN(C)Cc1c[nH]nc1-c1ccccc1NS(C)(=O)=O` [Compound 41], the IC50 on human PRMT6 (setting [1]) is 8140 nM.

Turning to `CNCCN(C)Cc1c[nH]nc1-c1cccc(NC(C)=O)c1` [Compound 42], the half-maximal inhibitory concentration (IC50) on human PRMT6 (setting [1]) was 47.6 nM; against Human CARM1 (PRMT4), 2240 nM.

Consider `CNCCN(C)Cc1c[nH]nc1-c1cccc(C(C)=O)c1` [Compound 44], for which the figures for the IC50 at human PRMT6 (setting [1]) and at Human CARM1 (PRMT4) were 39.4 nM and 1090 nM, respectively.

`CNCCN(C)Cc1c[nH]nc1-c1ccc(-c2ccccc2)cc1` [Compound 47]: the figures for the IC50 on human PRMT6 (setting [1]) and at Human CARM1 (PRMT4) were 4.76 nM and 28.3 nM, respectively.

With `CNCCN(C)Cc1c[nH]nc1-c1ccccc1F` [Compound 48], the IC50 on human PRMT6 (setting [2]) turned out to be 44.1 nM; at Human CARM1 (PRMT4) it was 5620 nM.

`CC(C)Oc1ccc(-c2n[nH]cc2CN(C)CCN)cc1` [Compound 67]: on Human CARM1 (PRMT4), the IC50 was found to be 247 nM.

Regarding `CN(CCN)Cc1n[nH]cc1-c1ccc(F)cc1` [Compound 69], the results for the IC50 on human PRMT6 (setting [2]) and against Human CARM1 (PRMT4) were 34.2 nM and 3920 nM, respectively.

Consider `CN(CCN)Cc1c[nH]nc1-c1cccc(C#N)c1` [Compound 70], for which the IC50 is 18.9 nM on human PRMT6 (setting [2]) and 3630 nM against Human CARM1 (PRMT4).

Turning to `CN(CCN)Cc1c[nH]nc1-c1cccc(F)c1` [Compound 71], the IC50 against human PRMT6 (setting [2]) came out at 8.16 nM; on Human CARM1 (PRMT4) it was 715 nM.

For the compound `CN(CCN)Cc1c[nH]nc1-c1ccccc1F` [Compound 72], the results for the IC50 on human PRMT6 (setting [2]) and on Human CARM1 (PRMT4) were 62.9 nM and 7040 nM, respectively.

Take `CN(CCN)Cc1c[nH]nc1-c1ccccc1` [Compound 73]: the IC50 against human PRMT6 (setting [2]) came out at 25.9 nM; on Human CARM1 (PRMT4), 2900 nM.

Take `CN(CCN)Cc1c[nH]nc1-c1ccc(C(C)(C)C)cc1` [Compound 74]: the IC50 on human PRMT6 (setting [2]) worked out at 37.8 nM; at Human CARM1 (PRMT4), 3530 nM.

For `CC(C)N(CCN)Cc1c[nH]nc1-c1ccc(F)cc1` [Compound 75], the IC50 at human PRMT6 (setting [2]) was determined as 1640 nM.

For `CN(CCN)Cc1cn(C2COC2)nc1-c1ccc(F)cc1` [Compound 77], the IC50 at human PRMT6 (setting [2]) stood at 101 nM; on Human CARM1 (PRMT4), 4090 nM.

`NCCN(Cc1c[nH]nc1-c1ccc(F)cc1)C1CC1` [Compound 78] gave an IC50 at human PRMT6 (setting [2]) of 66.5 nM.

For `CN(CCN)Cc1cnn(C2COC2)c1-c1ccc(F)cc1` [Compound 81], the IC50 against human PRMT6 (setting [2]) was determined as 105 nM; on Human CARM1 (PRMT4) it was 1630 nM.

As for `CN(CCN)Cc1c[nH]nc1-c1ccc(N2CCNCC2)cc1` [Compound 82], the results for the IC50 on human PRMT6 (setting [2]) and against Human CARM1 (PRMT4) were 129 nM and 9010 nM, respectively.

In the case of `CN(CCN)Cc1nn(C)cc1-c1ccc(C#N)cc1` [Compound 83], the IC50 against human PRMT6 (setting [2]) amounted to 52.8 nM; on Human CARM1 (PRMT4), 1130 nM.

For the compound `CN(CCN)Cc1c[nH]nc1-c1ccc(C(F)(F)F)cc1C(F)(F)F` [Compound 85], the IC50 against human PRMT6 (setting [2]) is 701 nM.

Take `CN(CCN)Cc1c[nH]nc1-c1ccc(Cl)cc1Cl` [Compound 86]: the IC50 against human PRMT6 (setting [2]) came to 9.16 nM; at Human CARM1 (PRMT4) it was 4190 nM.

In the case of `COc1ccc(-c2n[nH]cc2CN(C)CCN)c(OC)c1` [Compound 87], the IC50 worked out at 103 nM against human PRMT6 (setting [2]) and 4380 nM against Human CARM1 (PRMT4).

As for `Cc1ccc(-c2n[nH]cc2CN(C)CCN)c(C)c1` [Compound 88], the concentration for half-maximal inhibition (IC50) at human PRMT6 (setting [2]) came out at 29 nM; at Human CARM1 (PRMT4) it was 5220 nM.

Take `CN(CCN)Cc1c[nH]nc1-c1ccc(F)cc1Cl` [Compound 89]: the IC50 on human PRMT6 (setting [2]) was 13.5 nM; on Human CARM1 (PRMT4) it was 5980 nM.

With `Cc1ccc(-c2n[nH]cc2CN(C)CCN)c(Cl)c1` [Compound 90], the IC50 against human PRMT6 (setting [2]) is 10.2 nM; against Human CARM1 (PRMT4), 6920 nM.

`Cc1ccc(Cl)c(-c2n[nH]cc2CN(C)CCN)c1` [Compound 91] showed an IC50 at human PRMT6 (setting [2]) of 237 nM.

Regarding `CN(CCN)Cc1c[nH]nc1-c1ccc(C(F)(F)F)cc1` [Compound 92], the IC50 is 6.45 nM at human PRMT6 (setting [2]) and 690 nM against Human CARM1 (PRMT4).

Take `CN(CCN)Cc1c[nH]nc1-c1ccc(OC(F)(F)F)cc1` [Compound 93]: the IC50 at human PRMT6 (setting [2]) was determined as 10.7 nM; on Human CARM1 (PRMT4) it was 1830 nM.

For the compound `CN(CCN)Cc1c[nH]nc1-c1ccc(OC(F)F)cc1` [Compound 94], the half-inhibitory concentration (IC50) against human PRMT6 (setting [2]) worked out at 8.02 nM; on Human CARM1 (PRMT4), 873 nM.

For the compound `CN(CCN)Cc1c[nH]nc1-c1ccc(Cl)cc1` [Compound 95], the IC50 came out at 5.61 nM against human PRMT6 (setting [2]) and 392 nM against Human CARM1 (PRMT4).

With `CC(C)Oc1ccc(-c2n[nH]cc2CN(C)CCN)cc1Cl` [Compound 168], at human PRMT6 (setting [2]), the IC50 was found to be 11 nM.
